From patent US20200333324A1, “METHOD OF PREDICTING CLINICAL OUTCOME OF ANTICANCER AGENTS” (MITRA RXDX, INC., priority 2017, published 2020)

Key:
Assay type in all cases: cell-based, human
HNSCC tumor tissue [1] = assay: IHC for CD8, PD-L1, PD-1 and FOXP3 positive cells in tumor microenvironment platform; conditions: T3
Description: (§1) The effect of Pembrolizumab and Nivolumab on CD8^+ T cell tumor infiltration was then evaluated. Tumor sections from the same patient cultured for 72 hours in the tumor microenvironment platform were treated with Pembrolizumab, Nivolumab, or IgG as control and stained for H&E, Ki67, Caspase 3, and CD8 at day 3 in culture (T3). Baseline staining was determined at TO. […] To further elucidate the effects of the anti-PD-1 antibodies, FACS analysis was performed on tumor tissue from patient 2941 and patient 2942 treated with either Pembrolizumab, Nivolumab, or IgG control. […] By contrast, there was no effect of either Pembrolizumab or Nivolumab on CD8^+ T cell infiltration for patient 2942, further highlighting the differential response between individuals to PD-1 blockade. CD8^+ T cell infiltration was evaluated in the tumor microenvironment platform with tumor tissue from the same patient, and comparisons for control vs Nivo, control vs Pembro, Nivo vs Pembro, and control vs Nivo vs Pembro for multiple patients are shown in FIG. 6 (each line represents results from the tumor microenvironment platform cultured with tumor tissue from a single individual).
The effect of Pembrolizumab and Nivolumab on the expression of immunoregulatory molecules, including PD-1 and FOXP3, in the tumor microenvironment platform tumor microbed was evaluated. Tumor sections from the same patient cultured for 3 days (72 hours) in the tumor microenvironment platform were treated with Pembrolizumab, Nivolumab, or IgG control and stained for CD8, FOXP3, and PD-1 at day 3 in culture (T3). Baseline staining was determined at TO. Results are shown in FIG. 7A for tumor sections from a predicted responder to Pembrolizumab or Nivolumab and FIG. 7B for a predicted non-responder to Pembrolizumab or Nivolumab, as characterized by M-score. There was in increase in the number of PD-1^+ cells in the tumor microbed for both Pembrolizumab and Nivolumab, which was to a greater degree in the case of Nivolumab, when compared to IgG control in the responder (FIG. 7A). There was no change for either Pembrolizumab and Nivolumab in the non-responder (FIG. 7B). The numbers of PD-L1^+ tumor cells, PD-1^+ T cells, FOXP3^+ T-regulatory cells, and CD8^+ T cells were evaluated using the tumor microenvironment platform with tumor tissue from the same patient in Nivolumab, Pembrolizumab, and control conditions, and are summarized in Table 3. Comparisons for control vs Nivo, control vs Pembro, Nivo vs Pembro, and control vs Nivo vs Pembro for multiple patients are shown in FIG. 8 (each line represents results from the tumor microenvironment platform cultured with tumor tissue from a single individual).

HNSCC tumor tissue [2] = assay: FACS analysis for CD3 and CD8 (CD8+ T cell infiltration) in tumor microenvironment platform; conditions: vs IgG control
Description: as §1

HNSCC tumor tissue [3] = assay: Granzyme B and Perforin secretion assays, HNSCC tumor sections in tumor microenvironment platform; conditions: predicted non-responder, 48 hours
Description: FIGS. 9A and 9B show quantification of results for Granzyme B and Perforin secretion assays for HNSCC tumor tissue cultured in the tumor microenvironment platform treated with Pembrolizumab, Nivolumab, or IgG control for 24 or 48 hours.
HNSCC tumor sections from the same patient cultured for 24 or 48 hours in the tumor microenvironment platform with Pembrolizumab, Nivolumab, or IgG as control were assayed for Granzyme B and Perforin secretion. Results are shown in FIG. 9A for the tumor microenvironment platform with tumor tissue from a predicted responder and FIG. 9B for the tumor microenvironment platform with tumor tissue from a predicted non-responder. After treatment with Pembrolizumab for 48 hours, there was an increase in both Granzyme B and Perforin secretion in the tumor microenvironment platform with tissue from the predicted responder compared to treatment with the control IgG. By contrast, at 48 hours in the tumor microenvironment platform with tissue from the predicted non-responder there was no increase in Granzyme B or Perforin secretion for treatment with either Pembrolizumab or Nivolumab.

Nivolumab
12 cells/field: # cells/field PD-L1^+ (HNSCC tumor tissue [1]; Patient ID 2963, control 12)
30 cells/field: # cells/field CD8^+ (HNSCC tumor tissue [1]; Patient ID 2916, control 20)
35 cells/field: # cells/field CD8^+ (HNSCC tumor tissue [1]; Patient ID 2949, control 50)
0 cells/field: # cells/field PD-1^+ (HNSCC tumor tissue [1]; Patient ID 2916, control 0) | # cells/field PD-1^+ (HNSCC tumor tissue [1]; Patient ID 2918, control 2) | # cells/field PD-1^+ (HNSCC tumor tissue [1]; Patient ID 2926, control 0) | # cells/field PD-1^+ (HNSCC tumor tissue [1]; Patient ID 2928, control 0) | # cells/field PD-1^+ (HNSCC tumor tissue [1]; Patient ID 2939, control 0) | # cells/field PD-1^+ (HNSCC tumor tissue [1]; Patient ID 2942, control 0) | # cells/field PD-L1^+ (HNSCC tumor tissue [1]; Patient ID 2942, control 0) | # cells/field PD-1^+ (HNSCC tumor tissue [1]; Patient ID 2948, control 1) | # cells/field PD-1^+ (HNSCC tumor tissue [1]; Patient ID 2956, control 0) | # cells/field PD-1^+ (HNSCC tumor tissue [1]; Patient ID 2963, control 0) | # cells/field PD-1^+ (HNSCC tumor tissue [1]; Patient ID 2978, control 0) | # cells/field PD-1^+ (HNSCC tumor tissue [1]; Patient ID 2979, control 0) | # cells/field PD-1^+ (HNSCC tumor tissue [1]; Patient ID 2980, control 0) | # cells/field PD-1^+ (HNSCC tumor tissue [1]; Patient ID 2981, control 0) | # cells/field PD-L1^+ (HNSCC tumor tissue [1]; Patient ID 2981, control 0)
no change: number of PD-1^+ cells in the tumor microbed (HNSCC tumor tissue [1]; predicted non-responder, vs IgG control)
3 cells/field: # cells/field CD8^+ (HNSCC tumor tissue [1]; Patient ID 2918, control 10) | # cells/field PD-L1^+ (HNSCC tumor tissue [1]; Patient ID 2926, control 3) | # cells/field FOXP3^+ (HNSCC tumor tissue [1]; Patient ID 2926, control 4) | # cells/field PD-L1^+ (HNSCC tumor tissue [1]; Patient ID 2928, control 0) | # cells/field CD8^+ (HNSCC tumor tissue [1]; Patient ID 2941, control 5) | # cells/field PD-1^+ (HNSCC tumor tissue [1]; Patient ID 2949, control 1) | # cells/field PD-L1^+ (HNSCC tumor tissue [1]; Patient ID 2956, control 2)
2 cells/field: # cells/field PD-L1^+ (HNSCC tumor tissue [1]; Patient ID 2916, control 1) | # cells/field FOXP3^+ (HNSCC tumor tissue [1]; Patient ID 2918, control 3) | # cells/field CD8^+ (HNSCC tumor tissue [1]; Patient ID 2939, control 0) | # cells/field FOXP3^+ (HNSCC tumor tissue [1]; Patient ID 2939, control 1) | # cells/field PD-1^+ (HNSCC tumor tissue [1]; Patient ID 2941, control 0) | # cells/field FOXP3^+ (HNSCC tumor tissue [1]; Patient ID 2941, control 3) | # cells/field FOXP3^+ (HNSCC tumor tissue [1]; Patient ID 2963, control 10)
no effect: CD8^+ T cell infiltration (FACS) (HNSCC tumor tissue [2]; patient 2942)
no increase: Granzyme B secretion (HNSCC tumor tissue [3]) | Perforin secretion (HNSCC tumor tissue [3])
20 cells/field: # cells/field PD-L1^+ (HNSCC tumor tissue [1]; Patient ID 2918, control 10) | # cells/field CD8^+ (HNSCC tumor tissue [1]; Patient ID 2926, control 25) | # cells/field CD8^+ (HNSCC tumor tissue [1]; Patient ID 2948, control 20) | # cells/field PD-L1^+ (HNSCC tumor tissue [1]; Patient ID 2949, control 20)
25 cells/field: # cells/field CD8^+ (HNSCC tumor tissue [1]; Patient ID 2979, control 25)
increase: number of PD-1^+ cells in the tumor microbed (HNSCC tumor tissue [1]; predicted responder, vs IgG control, to a greater degree in the case of Nivolumab) | CD8^+ T cell infiltration (FACS) (HNSCC tumor tissue [2]; patient 2941)
1 cells/field: # cells/field CD8^+ (HNSCC tumor tissue [1]; Patient ID 2942, control 3) | # cells/field FOXP3^+ (HNSCC tumor tissue [1]; Patient ID 2948, control 1) | # cells/field PD-L1^+ (HNSCC tumor tissue [1]; Patient ID 2948, control 10) | # cells/field FOXP3^+ (HNSCC tumor tissue [1]; Patient ID 2978, control 1) | # cells/field PD-L1^+ (HNSCC tumor tissue [1]; Patient ID 2978, control 1) | # cells/field FOXP3^+ (HNSCC tumor tissue [1]; Patient ID 2979, control 2) | # cells/field FOXP3^+ (HNSCC tumor tissue [1]; Patient ID 2980, control 1) | # cells/field PD-L1^+ (HNSCC tumor tissue [1]; Patient ID 2980, control 8) | # cells/field FOXP3^+ (HNSCC tumor tissue [1]; Patient ID 2981, control 0)
17 cells/field: # cells/field CD8^+ (HNSCC tumor tissue [1]; Patient ID 2978, control 12)
10 cells/field: # cells/field PD-L1^+ (HNSCC tumor tissue [1]; Patient ID 2939, control 10) | # cells/field FOXP3^+ (HNSCC tumor tissue [1]; Patient ID 2956, control 8) | # cells/field CD8^+ (HNSCC tumor tissue [1]; Patient ID 2980, control 30)
15 cells/field: # cells/field CD8^+ (HNSCC tumor tissue [1]; Patient ID 2928, control 4) | # cells/field CD8^+ (HNSCC tumor tissue [1]; Patient ID 2981, control 1)
4 cells/field: # cells/field FOXP3^+ (HNSCC tumor tissue [1]; Patient ID 2916, control 3) | # cells/field FOXP3^+ (HNSCC tumor tissue [1]; Patient ID 2942, control 3) | # cells/field CD8^+ (HNSCC tumor tissue [1]; Patient ID 2963, control 6)
7 cells/field: # cells/field CD8^+ (HNSCC tumor tissue [1]; Patient ID 2956, control 1)
5 cells/field: # cells/field FOXP3^+ (HNSCC tumor tissue [1]; Patient ID 2928, control 4) | # cells/field PD-L1^+ (HNSCC tumor tissue [1]; Patient ID 2941, control 3) | # cells/field FOXP3^+ (HNSCC tumor tissue [1]; Patient ID 2949, control 5) | # cells/field PD-L1^+ (HNSCC tumor tissue [1]; Patient ID 2979, control 5)
increased CD8^+ T cell infiltration: CD8^+ T cell infiltration (IHC) (HNSCC tumor tissue [1]; patient 2941, vs IgG control)
